Experimental data taken from patent US7462324B2, “Measurement device and method for measuring electric signal from biological sample” (Panasonic Corporation, priority 2002, dated 2008).

Tested on: rat artery smooth muscles (SM)
Assay: Intracellular potential of a rat artery smooth muscle cell on carbachol administration, voltage clamp with measurement device 10
Type: cell-based
Procedure: As the biological sample 21, rat artery smooth muscles (SM) were used. As a solution to be injected into the measurement device 10, DMEM culture medium to which 10% FBS (fetal bovine serum) was added was used. An SM cell was inserted into the microelectrode 1 by performing the same operation as that of EXAMPLE 2, and then an intracellular potential when 100 μM carbachol, which was an analog of acetylcholine, was introduced as a solution was measured by a voltage clamp method.
The results were similar to those obtained by the known intracellular recording method.
FIG. 13 is a histogram of standard deviation per 10 ms before and after a carbachol administration. The mean value and half width of the graph, obtained by approximating the histogram before and after a carbachol administration with a normal distribution are 0.185 and 0.04, respectively, before the administration and 0.545 and 0.21, respectively, after the administration. […] The reason for the increase was that by the administration of carbachol, ion channels of the […] was activated, and changes in conductance due to switching of the activated ion channels is expressed by voltage change. From FIG. 13, it was confirmed that with the measurement device 10, ion channel properties for a nerve stimulator can be determined as in the same manner in the known intracellular recording method.

## C[N+](C)(C)CCOC(N)=O [carbachol]
100 μM carbachol introduced as a solution, SM cell on microelectrode, DMEM + 10% FBS, FIG. 12
  action potential in response to carbachol: detected
After carbachol administration (100 μM), before administration 0.185, FIG. 13
  mean value of histogram of standard deviation per 10 ms of the action potential (normal distribution approximation): 0.545
